Reference: patent publication US20070232492A1, “Herbicidal Composition” (Ishihara Sangyo Kaisha, LTD., priority 2004, published 2007)
Like-named read-outs stand apart in the source and are kept apart here.

What was measured:
[1] = system: Japanese bulrush (Scirpus juncoides); experiment: Growth inhibition of Japanese bulrush in paddy soil pots, application under submerged condition, visual rating and Colby expected value; assay type: in vivo
Excerpt: (§1) When the herbicidal activity in a case where two active ingredients are combined, is larger than the simple sum of the respective herbicidal activities of the two active ingredients (the expected activity), it is called a synergistic effect. The activity expected by the combination of two active ingredients can be calculated as follows (Colby S. R., “Weed”, vol. 15, p. 20-22, 1967). E=p+q−(p×q÷100) where p: growth inhibition rate when treated with x (g/a) of herbicide X,
(§2) q: growth inhibition rate when treated with y (g/a) of herbicide Y,
(§3) E: growth inhibition rate expected when treated with x (g/a) of herbicide X and y (g/a) of herbicide Y.
(§4) Namely, when the actual growth inhibition rate (observed value) is larger than the growth inhibition rate by the above calculation (expected value), the activity by the combination can be regarded as showing a synergistic effect.
(§5) Growth inhibition rate (%)=0% (equivalent to the non-treated area) to 100% (complete kill)
(§6) Paddy field soil was put into a 1/10,000 are pot, and seeds of Japanese bulrush (Scirpus juncoides) were sown and left to stand under an irrigated condition with a water depth of 3.5 cm. When Japanese bulrush reached 2.3 to 2.6 leaf stage, a wettable powder of compound A2 and granules of compound (B7.1) were, respectively, diluted with water and applied under submerged condition so that the active ingredients became the prescribed amounts, respectively. The state of growth was visually observed 10 days after application, and evaluation and calculation were carried out in the same manner as in the above Test Example 1.
as §6, with “an emulsifiable concentrate” for “granules”, “(B3.1)” for “(B7.1)”
(§7) Paddy field soil was put into a 1/10,000 are pot, and seeds of Japanese bulrush (Scirpus juncoides) were sown and left to stand under an irrigated condition with a water depth of 3.5 cm. When Japanese bulrush reached 2 leaf stage, wettable powders of compound A2, C2 and C4 and granules of compound C6 were, respectively, diluted with water and applied under submerged condition so that the active ingredients became the prescribed amounts, respectively.
Paddy field soil was put into a 1/10,000 are pot, and seeds of Japanese bulrush (Scirpus juncoides) were sown and left to stand under an irrigated condition with a water depth of 3.5 cm. When Japanese bulrush reached 2 leaf stage, wettable powders of compound A2, C2 and C4 and granules of compound C6 were, respectively, diluted with water and applied under submerged condition so that the active ingredients became the prescribed amounts, respectively. The state of growth was visually observed 19 days after application, and the growth inhibition rate (%) evaluated in the same manner as in the above Test Example 1 (observed value) and the growth inhibition rate (%) calculated by the above-mentioned Colby method (expected value) are shown in Tables 36, 37 and 38.
as §7, with “3” for “2”, “A2” for “A2, C2”, “and” for “and C4 and granules of”, “(D2.2)” for “C6”, “respectively. […]” for “respectively.”

[2] = system: barnyardgrass (Echinochloa oryzicola vasing); experiment: Growth inhibition of barnyardgrass in paddy soil pots, application under submerged condition, visual rating (observed value) and Colby expected value; assay type: in vivo; settings: for inhibition at 225 g/ha: read-out: Growth inhibition rate (%) Observed, 2.25 g/a
Excerpt: as §1, §2, §3, §4
Paddy field soil was put into a 1/10,000 are pot, and seeds of barnyardgrass (Echinochloa oryzicola vasing) were sown and left to stand under an irrigated condition with a water depth of 3.5 cm. When barnyardgrass reached 2.0 to 2.5 leaf stage, wettable powders of compound A2 and compound (B1.1) were, respectively, diluted with water and applied under submerged condition so that the active ingredients became the prescribed amounts, respectively. The state of growth was visually observed 21 days after application, and the growth inhibition rate (%) evaluated in accordance with the following evaluation standard (observed value) and the growth inhibition rate (%) calculated by the above-mentioned Colby method (expected value) are shown in Table 1.
as §5
(§8) Paddy field soil was put into a 1/10,000 are pot, and seeds of barnyardgrass (Echinochloa oryzicola vasing) were sown and left to stand under an irrigated condition with a water depth of 3.5 cm. When barnyardgrass reached 2.0 to 2.5 leaf stage, wettable powders of compound A2 and compound (B2.1) were, respectively, diluted with water and applied under submerged condition so that the active ingredients became the prescribed amounts, respectively. The state of growth was visually observed 21 days after application, and evaluation and calculation were carried out in the same manner as in the above Test Example 1.
as §8, with “leaf stage, a wettable powder” for “leaf stage, wettable powders”, “a wettable powder of compound” for “stage, wettable powders of compound”, “A2 and an emulsifiable concentrate of compound (B3.1)” for “A2 and compound (B2.1)”, “of compound (B3.1) were, respectively,” for “and compound (B2.1) were, respectively,”
as §8, with “(B4.1)” for “(B2.1)”
Paddy field soil was put into a 1/10,000 are pot, and seeds of barnyardgrass (Echinochloa oryzicola vasing) were sown and left to stand under an irrigated condition with a water depth of 3.5 cm. […]

[3] = 0.5 g/a, 2 leaf stage, 19 days after application, Test Example 33
[4] = 1.0 g/a, 2 leaf stage, 19 days after application, Test Example 33
[5] = 1.5 g/a, 2 leaf stage, 19 days after application, Test Example 34
[6] = 2.0 g/a, 2 leaf stage, 19 days after application, Test Example 33
[7] = 3.75 g/a, 2 leaf stage, 19 days after application, Test Example 34
[8] = 10 g/a, 2 leaf stage, 19 days after application, Test Example 34

CCNc1nc(NCC)nc(SC)n1 [Compound (B5.1), simetryn]
inhibition at 450 g/ha ([1]; Schoenoplectiella juncoides, soil, 696 h, read-out: Growth inhibition rate (%) Observed): 25%
inhibition at 169 g/ha ([2]; Echinochloa oryzicola, soil, 504 h, read-out: Growth inhibition rate (%) Observed, 1.69 g/a, 1.0 to 3.0 leaf stage, 21 days after application): 3%
inhibition at 225 g/ha ([2]; Echinochloa oryzicola, soil, 504 h, 2.0 to 2.5 leaf stage, 21 days after application): 2%
inhibition at 338 g/ha ([2]; Echinochloa oryzicola, soil, 504 h, read-out: Growth inhibition rate (%) Observed, 3.38 g/a, 1.0 to 3.0 leaf stage, 21 days after application): 10%
inhibition at 450 g/ha ([2]; Echinochloa oryzicola, soil, 504 h, read-out: Growth inhibition rate (%) Observed, 4.5 g/a, 2.0 to 2.5 leaf stage, 21 days after application): 5%
inhibition at 225 g/ha ([2]; Echinochloa oryzicola, soil, 696 h, 2.4 to 3.2 leaf stage, 29 days after application, Test Example 45): 5%

COc1cc(OC)nc(NC(=O)NS(=O)(=O)c2cccnc2C(O)C(C)F)n1 (stereo not shown) [Compound A1]
Growth inhibition rate (%) Observed ([1]; 0.11 g/a, 3.8 to 4.2 leaf stage, 21 days after application, Test Example 61): 65%
Growth inhibition rate (%) Observed ([2]; 0.083 g/a, 1.0 to 3.0 leaf stage, 21 days after application): 83%
Growth inhibition rate (%) Observed ([2]; 0.083 g/a, 2.8 to 3.2 leaf stage, 19 days after application, Test Examples 62-65): 55%
Growth inhibition rate (%) Observed ([2]; 0.083 g/a, 2.8 to 3.2 leaf stage, 21 days after application, Test Examples 39-43): 57%
Growth inhibition rate (%) Observed ([2]; 0.083 g/a, 2.8 to 3.4 leaf stage, 14 days after application, Test Examples 66-72): 40%
Growth inhibition rate (%) Observed ([2]; 0.083 g/a, 3.0 to 3.3 leaf stage, 21 days after application): 43%
Growth inhibition rate (%) Observed ([2]; 0.11 g/a, 1.0 to 3.0 leaf stage, 21 days after application): 97%
Growth inhibition rate (%) Observed ([2]; 0.11 g/a, 2.8 to 3.2 leaf stage, 19 days after application, Test Examples 62-65): 93%
Growth inhibition rate (%) Observed ([2]; 0.11 g/a, 2.8 to 3.2 leaf stage, 21 days after application, Test Examples 39-43): 67%
Growth inhibition rate (%) Observed ([2]; 0.11 g/a, 2.8 to 3.4 leaf stage, 14 days after application, Test Examples 66-72): 53%
Growth inhibition rate (%) Observed ([2]; 0.11 g/a, 3.0 to 3.3 leaf stage, 21 days after application): 60%
Growth inhibition rate (%) Observed ([2]; 0.165 g/a, 1.0 to 3.0 leaf stage, 21 days after application): 98%
Growth inhibition rate (%) Observed ([2]; 0.165 g/a, 2.8 to 3.2 leaf stage, 19 days after application, Test Examples 62-65): 94%
Growth inhibition rate (%) Observed ([2]; 0.165 g/a, 2.8 to 3.2 leaf stage, 21 days after application, Test Examples 39-43): 78%
Growth inhibition rate (%) Observed ([2]; 0.165 g/a, 2.8 to 3.4 leaf stage, 14 days after application, Test Examples 66-72): 70%
Growth inhibition rate (%) Observed ([2]; 0.165 g/a, 3.0 to 3.3 leaf stage, 21 days after application): 75%

CCOC(=O)COc1ccc(Cl)cc1C [Compound C2, MCP ethyl]
Growth inhibition rate (%) Observed [1, 3]: 13%
Growth inhibition rate (%) Observed [1, 4]: 23%
Growth inhibition rate (%) Observed [1, 5]: 20%
Growth inhibition rate (%) Observed [1, 6]: 35%
Growth inhibition rate (%) Observed [1, 7]: 45%
Growth inhibition rate (%) Observed [1, 8]: 68%

CC(C)N1C(=O)c2ccccc2NS1(=O)=O [Compound (B7.1), bentazone]
inhibition at 413 g/ha ([1]; Schoenoplectiella juncoides, soil, 240 h, 4.13 g/a, 2.3 to 2.6 leaf stage, 10 days after application, read-out: Growth inhibition rate (%) Observed): 10%
inhibition at 825 g/ha ([1]; Schoenoplectiella juncoides, soil, 240 h, 8.25 g/a, 2.3 to 2.6 leaf stage, 10 days after application, read-out: Growth inhibition rate (%) Observed): 10%
inhibition at 1650 g/ha ([1]; Schoenoplectiella juncoides, soil, 240 h, 16.5 g/a, 2.3 to 2.6 leaf stage, 10 days after application, read-out: Growth inhibition rate (%) Observed): 13%
inhibition at 750 g/ha ([1]; Schoenoplectiella juncoides, soil, 504 h, 7.5 g/a, 3.8 to 4.2 leaf stage, 21 days after application, Test Example 61, read-out: Growth inhibition rate (%) Observed): 98%
inhibition at 3300 g/ha ([2]; Echinochloa oryzicola, soil, 504 h, 33 g/a, 3.0 to 3.3 leaf stage, 21 days after application, read-out: Growth inhibition rate (%) Observed): 0%
inhibition at 4400 g/ha ([2]; Echinochloa oryzicola, soil, 504 h, 44 g/a, 3.0 to 3.3 leaf stage, 21 days after application, read-out: Growth inhibition rate (%) Observed): 0%

CCOC(=O)COc1ccc(Cl)cc1Cl [Compound C6, 2,4-D ethyl]
Growth inhibition rate (%) Observed [1, 3]: 23%
Growth inhibition rate (%) Observed [1, 4]: 33%
Growth inhibition rate (%) Observed [1, 5]: 20%
Growth inhibition rate (%) Observed [1, 6]: 53%
Growth inhibition rate (%) Observed [1, 7]: 45%
Growth inhibition rate (%) Observed [1, 8]: 68%
